Patent US8697742B2, “BCRP/ABCG2 inhibitor” (Kabushiki Kaisha Yakult Honsha, priority 2005, dated 2014)
Values after ≈ are worked out from the molar mass of the structure shown. Structures can show the parent of a compound that is named as a salt. Where two headings read alike, the source gives them in different places.

Experiments:
[1] = system: A549/SN-38-4 cells; experiment: Effect of overcoming SN-38 resistance of BCRP-expressing A549/SN-38-4 cells; assay type: cell-based, human; conditions: concentration for 50% reduction of relative SN-38 resistance value (IC50 A549/SN-38-4 / IC50 A549), 48 hours culture with SN-38; for EC50: Homo sapiens, A549, 48 h, read-out: Effect of overcoming resistance EC50
Description: The human lung cancer A549 cells or the A549/SN-38-4 cells were suspended in a Ham's F-12 medium containing 10% FBS, 100 U/mL of penicillin, and 100 μg/mL of streptomycin (10% FBS/Ham's F-12), and the resultant suspension was inoculated into a 96-well microplate (2×10^3 cells/50 μL/well), followed by culturing at 5% CO2 and 37° C. overnight. […] After completion of culturing, the number of viable cells was counted by use of a viable cell counting reagent [TetraColor ONE (trademark), product of Seikagaku Corporation] according to the attached instruction manual. […] The greater the relative resistance value, the higher the level of acquired resistance.

[2] = system: P388/BCRP cells; experiment: Effect of overcoming SN-38 resistance of human BCRP gene-transduced P388 cells; assay type: cell-based, mouse; conditions: with SN-38, 48 hours, FIG. 1
Description: (§1) Mouse leukemia P388 cells or human BCRP gene-transduced P388 cells (P388/BCRP cells) (see JP-A-2003-063989) were suspended in 10% FBS/RPMI1640 containing 2-mercaptethanol (50 μM), and the resultant suspension was added to a 96-well microplate (1×10^4 cells/50 μL/well). Thereafter, a solution of each of Compounds 1, 14, 21, 31, 39, and 41 of the present invention and SN-38 in 100 FBS/RPNI1640 (25 μL) was added to each of the wells, followed by culturing at 5% CO2 and 37° C. for 48 hours. After completion of culturing, the number of viable cells was counted by use of TetraColor ONE according to the manufacture's instruction manual.

[3] = system: P388 cells; experiment: Sensitivity of parental P388 cells to SN-38; assay type: cell-based, mouse; conditions: with SN-38, 48 hours, FIG. 1
Description: as §1

[4] = system: K562/MDR cells; experiment: Effect on paclitaxel (multidrug) resistance of human MDR1 gene-transduced K562 cells; assay type: cell-based; conditions: Homo sapiens, read-out: Effect of overcoming resistance EC50
Excerpt: After completion of culturing, the number of viable cells was counted by use of TetraColor ONE according to the manufacture's instruction manual.

[5] = system: HCT116/BCRP cells; experiment: Effect of overcoming anticancer agent resistance in vivo, HCT116/BCRP tumour in nude mice; parameters: species or system human; conditions: day 21; for Tumor weight Mean ± S.D.: BALB/c nude mice; for Tumor growth inhibition ratio IR: vs control group
Excerpt: (§2) A solvent was solely administered to a control group. On the day 21 from the start of administration, a tumor was extirpated from each mice and weighed, and the tumor growth inhibition ratio IR (%) was derived from the following equation: Tumor growth inhibition ratio IR(%)=(1−average tumor weight of each administration group/average tumor weight of control group)×100.

[6] = system: K562/BCRP cells; experiment: Intracellular accumulation of SN-38 in BCRP-expressing cells; assay type: cell-based, human; conditions: compound 500 ng/mL, 37° C. for 30 minutes, FIG. 2
Description: (§3) K562 cells or human BCRP gene-transduced K562 cells (K562/BCRP cells) (see JP-A-2003-063989) were suspended in 10% FBS/RPMI1640 (1 mL) (5×10^6 cells/mL), and SN-38 and each of Compounds 1, 39, and 46 of the present invention (final concentration: 500 ng/mL) were added to the resultant suspension, followed by incubation at 37° C. for 30 minutes. Thereafter, centrifugation was performed (2° C., 1,400×g, 1 min), and the resultant supernatant was removed. Ice-cooled PBS containing 1% BSA was added to the thus-pelletized cells, and the cells were resuspended, followed by centrifugation (2° C., 1,400×g, 1 min) for washing the cells. This washing procedure was performed again, followed by addition of PBS (250 μL) and sonication of the cells. To the resultant cell sonicate, methanol (250 μL) and 10% zinc sulfate solution (10 μL) were added, and the resultant mixture was stirred, followed by centrifugation (2° C., 12, 500×g, 5 min) and collection of the supernatant. The thus-collected supernatant was dispensed in a white 96-well microplate for fluorescence intensity measurement (200 μL/well), and then the amount of SN-38 contained in the supernatant was measured by use of a microplate fluorometer [SPECTRA max GEMINI XS (trademark), product of Molecular Devices] […]

[7] = system: K562 cells; experiment: Intracellular accumulation of SN-38 in parental K562 cells; assay type: cell-based, human; conditions: compound 500 ng/mL, 37° C. for 30 minutes, FIG. 2
Description: as §3

[8] = system: HCT116 cells; experiment: In vivo tumour growth, HCT116 tumour in nude mice; parameters: species or system human; conditions: solvent + CPT-11 10 mg/kg/day i.v. for seven days (no compound); day 21; parental HCT116
Excerpt: as §2

[9] = concentration for 50% reduction of relative paclitaxel resistance value, K562/MDR vs K562, 72 hours
[10] = compound 12.5 mg/kg/day + CPT-11 10 mg/kg/day i.v. once a day for seven days
[11] = compound 25 mg/kg/day + CPT-11 10 mg/kg/day i.v. once a day for seven days
[12] = compound 6.3 mg/kg/day + CPT-11 10 mg/kg/day i.v. once a day for seven days

EC50 [1]	EC50 [4, 9]	SMILES	Tumor weight Mean ± S.D. [5, 10]	Tumor growth inhibition ratio IR [5, 10]	other results
0.02 µg/mL (≈ 0.0531 µM)	> 5 µg/mL	COc1ccc(/C(C#N)=C/c2ccc(-c3cccc([N+](=O)[O-])c3)o2)cc1OC [Compound 21, (Z)-2-(3,4-dimethoxy-phenyl)-3-[5-(3-nitro-phenyl)-furan-2-yl]-acrylonitrile]	–	–	Effect of overcoming the SN-38 resistance of the P388/BCRP cells [2]: potent effect of overcoming the SN-38 resistance; Effect on sensitivity of the P388 cells to SN-38 [3]: did not affect the sensitivity
0.006 µg/mL (≈ 0.019 µM)	> 5 µg/mL	COc1ccc(/C(C#N)=C/c2ccc([N+](=O)[O-])s2)cc1OC [Compound 1, (Z)-2-(3,4-dimethoxy-phenyl)-3-(5-nitro-thiophen-2-yl)-acrylonitrile]	–	–	Effect of overcoming the SN-38 resistance of the P388/BCRP cells [2]: potent effect of overcoming the SN-38 resistance; Effect on sensitivity of the P388 cells to SN-38 [3]: did not affect the sensitivity; Amount of accumulation of SN-38 in the K562/BCRP cells [6]: increased the amount of accumulation of SN-38; Amount of accumulation of SN-38 in the K562 cells (parental cells) [7]: virtually unaffected
0.02 µg/mL (≈ 0.0751 µM)	> 5 µg/mL	COc1ccc(/C(C#N)=C/c2ccncc2)cc1OC [Compound 30, (Z)-2-(3,4-dimethoxy-phenyl)-3-pyridin-4-yl-acrylonitrile]	–	–	–
0.16 µg/mL (≈ 0.441 µM)	> 5 µg/mL	COc1ccc(/C(C#N)=C/c2sc(-c3ccccc3)nc2C)cc1OC [Compound 43, (Z)-2-(3,4-dimethoxy-phenyl)-3-(4-methyl-2-phenyl-thiazol-5-yl)-acrylonitrile]	–	–	–

Continued, molecule first:

SMILES	EC50 [1]	EC50 [4, 9]	Tumor weight Mean ± S.D. [5, 10]	Tumor growth inhibition ratio IR [5, 10]	other results
COc1ccc(/C(C#N)=C/c2ccc(N3CCN(CCO)CC3)s2)cc1OC [Compound 14, (Z)-2-(3,4-dimethoxy-phenyl)-3-{5-[4-(2-hydroxy-ethyl)-piperazin-1-yl]-thiophen-2-yl}-acrylonitrile hydrochloride]	–	–	0.79 ± 0.14 g	37.7%	Effect of overcoming resistance EC50 ([1]; hydrochloride): 0.087 µg/mL; EC50 ([4]; K562, 72 h): > 5 µg/mL; Tumor weight Mean ± S.D. [5, 11]: 0.70 ± 0.10 g; Tumor growth inhibition ratio IR [5, 11]: 45.1%
COc1ccc(/C(C#N)=C/c2ccc[nH]2)cc1OC [Compound 39, (Z)-2-(3,4-dimethoxy-phenyl)-3-(1H-pyrrol-2-yl)-acrylonitrile]	0.037 µg/mL (≈ 0.146 µM)	> 5 µg/mL	–	–	Effect of overcoming the SN-38 resistance of the P388/BCRP cells [2]: potent effect of overcoming the SN-38 resistance; Effect on sensitivity of the P388 cells to SN-38 [3]: did not affect the sensitivity; Amount of accumulation of SN-38 in the K562/BCRP cells [6]: increased the amount of accumulation of SN-38; Amount of accumulation of SN-38 in the K562 cells (parental cells) [7]: virtually unaffected
COc1ccc(/C(C#N)=C/c2ccc(-c3cccc(N)c3)o2)cc1OC [Compound 23, (Z)-3-[5-(3-amino-phenyl)-furan-2-yl]-2-(3,4-dimethoxy-phenyl)-acrylonitrile hydrochloride]	–	–	1.21 ± 0.17 g	12.3%	Effect of overcoming resistance EC50 ([1]; hydrochloride): 0.058 µg/mL; Tumor weight Mean ± S.D. [5, 11]: 0.71 ± 0.11 g; Tumor growth inhibition ratio IR [5, 11]: 48.8%
COc1ccc(/C(C#N)=C/c2ccncc2)cc1OC [Compound 31, (Z)-2-(3,4-dimethoxy-phenyl)-3-pyridin-4-yl-acrylonitrile hydrochloride]	–	–	0.74 ± 0.06 g	46.6%	Effect of overcoming resistance EC50 ([1]; hydrochloride): 0.037 µg/mL; Tumor weight Mean ± S.D. [5, 11]: 0.67 ± 0.18 g; Tumor growth inhibition ratio IR [5, 11]: 51.1%
CCc1c2c(nc3ccc(OC(=O)N4CCC(N5CCCCC5)CC4)cc13)-c1cc3c(c(=O)n1C2)COC(=O)[C@]3(O)CC [CPT-11, irinotecan hydrochloride]	–	–	–	–	Tumor weight Mean ± S.D. [8]: 0.37 ± 0.08 g
COc1ccc(/C(C#N)=C/c2ccc(N3CCN(CCO)CC3)o2)cc1OC [Compound 28, (Z)-2-(3,4-dimethoxy-phenyl)-3-{5-[4-(2-hydroxy-ethyl)-piperazin-1-yl]-furan-2-yl}-acrylonitrile]	0.12 µg/mL (≈ 0.313 µM)	> 5 µg/mL	–	–	–
COc1ccc(/C(C#N)=C/c2ccc(N3CCC(O)CC3)o2)cc1OC [Compound 26, (Z)-2-(3,4-dimethoxy-phenyl)-3-[5-(4-hydroxy-piperidin-1-yl)-furan-2-yl]-acrylonitrile]	0.075 µg/mL (≈ 0.212 µM)	> 5 µg/mL	–	–	–
COc1ccc(/C=C(\C#N)c2cccnc2)cc1OC [Compound 46, (Z)-3-(3,4-dimethoxy-phenyl)-2-pyridin-3-yl-acrylonitrile hydrochloride]	–	–	0.79 ± 0.21 g	37.7%	Effect of overcoming resistance EC50 ([1]; hydrochloride): 0.1 µg/mL; Tumor weight Mean ± S.D. [5, 11]: 0.67 ± 0.07 g; Tumor growth inhibition ratio IR [5, 11]: 47.7%
COc1ccc(/C(C#N)=C/c2cnc[nH]2)cc1OC [Compound 41, (Z)-2-(3,4-dimethoxy-phenyl)-3-(3H-imidazol-4-yl)-acrylonitrile]	0.28 µg/mL (≈ 1.1 µM)	> 5 µg/mL	–	–	Effect of overcoming the SN-38 resistance of the P388/BCRP cells [2]: potent effect of overcoming the SN-38 resistance; Effect on sensitivity of the P388 cells to SN-38 [3]: did not affect the sensitivity
COc1ccc(/C(C#N)=C/c2ccc(N3CCCCC3)s2)cc1OC [Compound 4, (Z)-2-(3,4-dimethoxy-phenyl)-3-(5-piperidin-1-yl-thiophen-2-yl)-acrylonitrile]	–	> 5 µg/mL	–	–	Effect of overcoming resistance EC50 [1]: 0.012 µg/mL
COc1ccc(/C(C#N)=C/c2ccc(N3CCOCC3)s2)cc1OC [Compound 5, (Z)-2-(3,4-dimethoxy-phenyl)-3-(5-morpholin-4-yl-thiophen-2-yl)-acrylonitrile]	0.013 µg/mL (≈ 0.0365 µM)	> 5 µg/mL	–	–	–
COc1ccc(/C(C#N)=C/c2ccc(N3CCN(C)CC3)s2)cc1OC [Compound 13, (Z)-2-(3,4-dimethoxy-phenyl)-3-[5-(4-methyl-piperazin-1-yl)-thiophen-2-yl]-acrylonitrile hydrochloride]	–	–	0.87 ± 0.18 g	31.7%	Effect of overcoming resistance EC50 ([1]; hydrochloride): 0.033 µg/mL; Tumor weight Mean ± S.D. [5, 11]: 0.83 ± 0.08 g; Tumor growth inhibition ratio IR [5, 11]: 35.0%
COc1ccc(/C(C#N)=C/c2ccncc2)cc1OC.CS(=O)(=O)O [Compound 32, (Z)-2-(3,4-dimethoxy-phenyl)-3-pyridin-4-yl-acrylonitrile methanesulfonate]	0.028 µg/mL	> 5 µg/mL	0.52 ± 0.11 g	59.0%	Tumor weight Mean ± S.D. [5, 12]: 0.75 ± 0.24 g; Tumor growth inhibition ratio IR [5, 12]: 40.8%
